Experimental data taken from US20250186396A1, “COMPOSITIONS AND METHODS FOR THE TREATMENT OF GLIOBLASTOMA WITH A DUAL TARGETING ANTI-TUMOR COMPOSITION” (Northwestern University, priority 2023, published 2025).

Experiments:
[1] = LC-MS/MS quantification of BAPN in plasma and brain; assay type: in vivo, C57BL/6 mice; conditions: BAPN 2 g/L in drinking water; concentration in plasma and brain after 1, 2, 4, 8 hours
Protocol: Mass spectrometry. A high-performance liquid chromatography tandem mass spectrometry (LC-MS/MS) assay was developed to quantify BAPN and SR9009 in plasma and brain of C57BL/6 mice. Specifically, the blood and brain tissues were collected after 1, 2, 4, and 8 hours of the administration of BAPN (2 g/L in drinking water) or SR9009 (100 mg/kg body weight, i.p.). The plasma was generated using the standard centrifugation techniques, and the brain tissues were pulverized by cryogenic grinding with liquid nitrogen. The plasma and brain tissue samples were mixed with internal standards, deproteinized with MeOH, and processed into LC-MS/MS to test the concentration of BAPN or SR9009. The analysis was performed at the Mass Spectrometry Core in Research Resources Center of University of Illinois at Chicago.

005 GSCs = experiment: Survival of mice intracranially implanted with 005 GSCs; assay type: in vivo, C57BL/6 mice; conditions: 005 GSCs 2×10^5 cells/mouse; BAPN 2 g/L drinking water from day 4; SR9009 100 mg/kg i.p. 10 days from day 7; anti-PD1 10 mg/kg i.p. days 11, 14, 17; radiation 2.5 Gy 4 days from day 7
Protocol: Mice and Intracranial Xenograft Tumor Models. Female C57BL/6 mice at 3 to 4 weeks of age were purchased from the Jackson Laboratory (#0000664). All animals were grouped by 5 mice per cage and maintained in IVC System (San Diego, CA) for a week before the experiment. All animal experiments were performed with the approval of the Institutional Animal Care and Use Committee (IACUC) at Northwestern University. The intracranial xenograft tumor models were established previously. In brief, mice were anesthetized by isoflurane through IMPAC6 Anesthesia System. Then a dental drill was used to open a small hole in the skull of mice 1.2 mm anterior and 3.0 mm lateral to the bregma. Mice were placed into the stereotactic apparatus, and 5 μL 005 GSC, CT2A, or GL261 cells in FBS-free culture medium were injected into the right caudate nucleus 3 mm below the surface of the brain using a 10 μL Hamilton syringe with an unbeveled 30-gauge needle. The incision was closed using Vetbond glue. Meloxicam (20 mg/kg, daily) was subcutaneously injected for pain relief for 3 days after surgery. […]
Statistical analysis. […] The survival analysis for animal models was determined by conducting Log-rank (Mantel-Cox) test. […]

N#CCCN [BAPN, β-aminopropionitrile]
ability to cross the blood-brain barrier (BBB) [1]: showed an ability to cross the blood-brain barrier | survival (005 GSCs): extended the survival
